Test results as given in patent US7067486B2, “Acetylcholinesterase-derived peptides and uses thereof” (priority 1999, dated 2006).
Marks after values point to notes of the source that are not given here. Where no end group is shown, it is not given here.

Legend:
FVB/N adult mice = experiment: Biochemical and physiological male fertility correlates after ARP injection; type: in vivo, mouse
Source text: Culture Analyses: Twenty-four hr liquid cultures served for cytochemical staining, in situ hybridization, and cell proliferation assay by 5-bromo-2′-deoxy-Uridine (BrdU) incorporation [Grisaru et al. (1999b) id ibid.]. Twenty-eight day liquid cultures were sampled every 6–8 days for viable cell counting (using trypan blue dye exclusion), cell phenotyping (CD34^+, CD33^+ and CD41^+ quantification using flow cytometry, with CD34-PE, CD33-FITC (Immunotech/Coulter, Hialeah, Fla.), CD41-FITC (Immunoquality Products, Groningen, Netherlands) and CD45-FITC monoclonal antibodies), and growth of progenitor colony (granulocyte-macrophage and megakaryocytic), using previously described techniques (Pick et al. (1998) id ibid.). Cytochemical Staining: Staining of AChE activity was essentially as detailed elsewhere [Grisaru et al. (1999b) id ibid], on non-fixed liquid cultures following 300×g centrifugation on collagen-coated cover slips placed on the bottom of the culture well, in the presence of 10^−5 M iso-OMPA (ISO) or BW284C51 (BW), selective inhibitors of BuChE and AChE, respectively [see also Keymer et al.(1999) Eur. J. Neurosci. 11, 1049–57]. Nuclear staining w with 4′,6-diamidino-2- phenylindole [DAPI, see e.g., Peterson et al. (1999) Genetics 152, 427–439]. Animals and Tissue Collection: Male FVB/N mice (2–6 months old) were sacrificed 24 hr following 4 successive days of a forced swim session as detailed [Kaufer et al. (1998) id ibid.], or a single injection of ARP (34 nmol/kg weight), or phosphate buffer (PB) for control. ARP, a 26 amino acid residue peptide synthesized according to the C-terminal sequence of human AChE-R [Grisaru et al. (1999b) id ibid.] was HPLC purified and mass-spectrometry analysed for purity. Control naïve mice and hAChE-R transgenics were sacrificed with no prior treatment. Blood samples were allowed to clot 1 hr at room temperature and overnight at 4° C., followed by centrifugation and serum collection. Testes and seminal vesicles were excised and weighed, fixed in 4% paraformaldehyde or Bouin's fixative for histological staining or kept at −70° C. for protein extraction. Sperm cells were collected from one cauda epididymis shredded in 1 ml saline. Evaluation of Serum Corticosterone Levels: concentrations were determined by radioimmunoassay.
Epididymal sperm motility was assessed by visually determining percent motile sperm. Sperm concentration was measured using the Makler chamber (company, city, state).
Detection of the AChE core protein and/or its variant C-terminal peptides was performed on 7 μm thick paraffin embedded testis sections with either anti-ASP (C-16; Santa Cruz Biotechnology, Santa Cruz, Calif.) or anti-ARP polyclonal antibodies [Sternfeld et al. (2000) id ibid.]. PCNA was detected using a dedicated staining kit (Zymed Laboratories, San-Francisco, Calif.); nuclear staining and counterstaining was with DAPI and hematoxylin, respectively (Sigma, St. Louis Mo.).
To determine the in vivo capacity of ARP to affect different biochemical and physiological male fertility properties, the effect of injection of ARP or chronic expression of AChE-R (AChE-R transgenic mice) on different parameters was examined.

CD34^+ cells [1] = experiment: Viable cell expansion in CD34+ liquid cultures (trypan blue exclusion); type: cell-based, human; conditions: day 14; seeded at 50,000 cells/well; ARP 2 nM, cortisol 1.2 μM, ASP 2 nM, SCF 50 ng/ml, AS1 20 pM, PBAN 2 nM
Source text: Cell Source: UCB was collected, following informed consent of the parents and with the approval of the Sourasky Medical Center Ethics Committee, as previously described [Grisaru et al. (1999a) Am. J. Obstet. Gynecol, 180, 1240–1243]. Following 1:1 (v/v) dilution in Iscove's modified Dulbecco medium (IMDM, Beit Haemek, Israel), mononuclear cells were separated using 3% gelatin (Difco, Detroit, Mich.) and Ficoll-Hypaque gradients (<1.077 g/ml; Pharmacia, Uppsala, Sweden) [Pick et al. (1998) Br. J. Haematol. 103, 639–50]. CD34^+ cells were enriched using CD34 immunoglobulin-coated magnetic beads (CD34 progenitor cell selection system, Dynal, Norway).CD34^+ cells analysis was performed by flow cytometry (Becton Dickinson Immunocytochemistry System Inc., San Jose, Calif.), using CD34-PE (Becton Dickinson Immunocytometry System, Inc.) and CD45-FITC (Dako, Glostrup, Denmark) monoclonal antibodies. […] Liquid Cultures: UCB CD34^+ cells were set for liquid cultures at a concentration of 10^5/mL in IMDM, containing 10% autologous plasma, 2 mM L-glutamine (Sigma Chemical Co., St Louis, Mo.), penicillin ([…]), streptomycin ([…]), amphotericin B (2×10^−5 M) (Sigma Chemical Co.), and heparin (20 IU/mL, Gibco, Grand Island, N.Y.), all in a fully humidified atmosphere at 37° C. and 5% CO2. The following elements were added where noted: • 1. Hematopoietic growth factors: Interleukin 3 (IL3, 5 ng/mL, Immunex, Seattle, Wash.), interleukin 6 (IL6, 50 ng/mL, R&D Systems, Minneapolis, Minn.), TPO (1 ng/mL, R&D Systems), stem cell factor (SCF, 10 ng/mL, R&D Systems), FLT-3 ligand (FLT3, 50 ng/mL, R&D Systems), granulocyte-macrophage colony stimulating factor (GM-CSF, 50 ng/mL, Biogenesis Ltd, Bournemouth, UK) and combinations of the above, for 24 hr to 28 days (supplemented every 4 days). • 2. Endothlial Growth factors: Epidermal growth factor (EGF 10 ng/ml, Sigma Chemical Co.), basic Fibroblast growth factor (bFGF 20 ng/ml, Sigma Chemical Co.) incubated in a serum free medium (SFM) for 48 hr. • 3. […] AChE C-terminal peptides: The following C-terminal peptides of the AChE synaptic (ASP, also denoted SEQ ID: No. 2) and readthrough (ARP, also denoted SEQ ID: No. 1) isoforms were synthesized using a 433A peptide synthesizer (PE Applied Biosystems, Inc., Norwalk, Conn.). • ASP: 1-[…]-40, also denoted as SEQ ID: No. 2. • ARP: 1-[…]-26, also denoted as SEQ ID: No. 1. […]

CD34^+ cells [2] = experiment: Cell phenotyping of CD34+ liquid cultures by flow cytometry (CD34, CD33, CD15, CD41); type: cell-based, human; conditions: for MK (CD41^+) fold expansion / Myeloid (CD33^+) fold expansion: 2-week primary cultures of CD34+ cells from 1 to 3 individuals, ± SEM where noted
Source text: Cell Source: UCB was collected, following informed consent of the parents and with the approval of the Sourasky Medical Center Ethics Committee, as previously described [Grisaru et al. (1999a) Am. J. Obstet. Gynecol, 180, 1240–1243]. Following 1:1 (v/v) dilution in Iscove's modified Dulbecco medium (IMDM, Beit Haemek, Israel), mononuclear cells were separated using 3% gelatin (Difco, Detroit, Mich.) and Ficoll-Hypaque gradients (<1.077 g/ml; Pharmacia, Uppsala, Sweden) [Pick et al. (1998) Br. J. Haematol. 103, 639–50]. CD34^+ cells were enriched using CD34 immunoglobulin-coated magnetic beads (CD34 progenitor cell selection system, Dynal, Norway).CD34^+ cells analysis was performed by flow cytometry (Becton Dickinson Immunocytochemistry System Inc., San Jose, Calif.), using CD34-PE (Becton Dickinson Immunocytometry System, Inc.) and CD45-FITC (Dako, Glostrup, Denmark) monoclonal antibodies. […] Liquid Cultures: UCB CD34^+ cells were set for liquid cultures at a concentration of 10^5/mL in IMDM, containing 10% autologous plasma, 2 mM L-glutamine (Sigma Chemical Co., St Louis, Mo.), penicillin ([…]), streptomycin ([…]), amphotericin B (2×10^−5 M) (Sigma Chemical Co.), and heparin (20 IU/mL, Gibco, Grand Island, N.Y.), all in a fully humidified atmosphere at 37° C. and 5% CO2. The following elements were added where noted: • 1. […] Endothlial Growth factors: Epidermal growth factor (EGF 10 ng/ml, Sigma Chemical Co.), basic Fibroblast growth factor (bFGF 20 ng/ml, Sigma Chemical Co.) incubated in a serum free medium (SFM) for 48 hr. • 3. Stress mimicking conditions: Hydrocortisone sodium succinate (Abic Ltd., Netanya, Israel) at concentrations equivalent to normal, intermediate and stress serum cortisol levels (0.1, 0.6 and 1.2 μM, respectively (De Vroede et al., Arch. Des. […] Antisense oligonucleotides: 3′-terminal 2′-O-Methylated 15- and 20-mer oligodeoxynucleotides in the antisense (AS) orientation, targeted against the common sequence domain in human AChEmRNA and BuChE mRNA, as control, […], as detailed elsewhere [Grisaru et al. (1999b) Mol. Cell. Biol. 19, 788–95]. • 5. AChE C-terminal peptides: The following C-terminal peptides of the AChE synaptic (ASP, also denoted SEQ ID: No. 2) and readthrough (ARP, also denoted SEQ ID: No. 1) isoforms were synthesized using a 433A peptide synthesizer (PE Applied Biosystems, Inc., Norwalk, Conn.). • ASP: 1-[…]-40, also denoted as SEQ ID: No. 2. • ARP: 1-[…]-26, also denoted as SEQ ID: No. 1.
Culture Analyses: Twenty-four hr liquid cultures served for cytochemical staining, in situ hybridization, and cell proliferation assay by 5-bromo-2′-deoxy-Uridine (BrdU) incorporation [Grisaru et al. (1999b) id ibid.]. Twenty-eight day liquid cultures were sampled every 6–8 days for viable cell counting (using trypan blue dye exclusion), cell phenotyping (CD34^+, CD33^+ and CD41^+ quantification using flow cytometry, with CD34-PE, CD33-FITC (Immunotech/Coulter, Hialeah, Fla.), CD41-FITC (Immunoquality Products, Groningen, Netherlands) and CD45-FITC monoclonal antibodies), and growth of progenitor colony (granulocyte-macrophage and megakaryocytic), using previously described techniques (Pick et al. (1998) id ibid.). […] 11, 1049–57]. Nuclear staining w with 4′,6-diamidino-2- phenylindole [DAPI, see e.g., Peterson et al. (1999) Genetics 152, 427–439].

[3] = 24-hr post i.p. injection of 34 nmol/Kg ARP, FVB/N adult male mice
[4] = day 14, seeded at 50,000 cells/well, ARP 2 nM, cortisol 1.2 μM, ASP 2 nM, SCF 50 ng/ml, AS1 20 pM, PBAN 2 nM

Substance | seminal gland wt. (FVB/N adult mice; [3]) [mg/gr weight] | sperm counts (FVB/N adult mice; [3]) [cells/epididimis × 10^−6] | sperm, motile (FVB/N adult mice; [3]) | sperm cell motility (FVB/N adult mice; ARP injected mice) | sperm counts compared with untreated FVB/N mice (FVB/N adult mice; ARP-injected mice) | Total viable cells (CD34^+ cells [1]) [cells per culture × 10^−3] | MK (CD41^+) fold expansion (CD34^+ cells [2]) [fold] | Myeloid (CD33^+) fold expansion (CD34^+ cells [2]) [fold] | CD33^+ (early myeloids) (CD34^+ cells [2]; [4]) [cells per culture × 10^−3] | CD33^+ and CD15^+ (total myeloids) (CD34^+ cells [2]; [4]) [cells per culture × 10^−3] | CD34^+ (early progenitors) (CD34^+ cells [2]; [4]) [cells per culture × 10^−3] | CD41^+ (megakaryocytes) (CD34^+ cells [2]; [4])
GMQGPAGSGWEEGSGSPPGVTPLFSP [ARP] | 10.79 ± 1.08 | 5.3 ± 1.2 | 5 ± 1.7 % of total sperm cells | significantly reduced motility | lower | – | – | – | – | – | – | –
SCF | – | – | – | – | – | 118.0 | 0.30 ± 0.21 | 3.90 | 69.0 | 72.0 | 6.3 | 2.6^b cells per culture × 10^−3
TPO | – | – | – | – | – | – | 3.93 ± 3.56 | 3.51 ± 2.23 | – | – | – | –
